In PubChem BioAssay (NCI):
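Assay format: 96-well plates, 48-hour exposure. TGI is the concentration that stops growth completely.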

Assays:
Experiment in all cases: NCI anticancer screen, dose series, 48 h
786-0 renal = test system: 786-0 renal
A498 renal = test system: A498 renal
A549 NSCLC = test system: A549 NSCLC
ACHN renal = test system: ACHN renal
BT-549 breast = test system: BT-549 breast
CAKI-1 renal = test system: CAKI-1 renal
CCRF-CEM leukemia = test system: CCRF-CEM leukemia
COLO 205 colon = test system: COLO 205 colon
DU-145 prostate = test system: DU-145 prostate
EKVX NSCLC = test system: EKVX NSCLC
HCC-2998 colon = test system: HCC-2998 colon
HCT-116 colon = test system: HCT-116 colon
HCT-15 colon = test system: HCT-15 colon
HL-60(TB) leukemia = test system: HL-60(TB) leukemia
HOP-62 NSCLC = test system: HOP-62 NSCLC
HOP-92 NSCLC = test system: HOP-92 NSCLC
HS 578T breast = test system: HS 578T breast
HT29 colon = test system: HT29 colon
IGROV1 ovarian = test system: IGROV1 ovarian
K-562 leukemia = test system: K-562 leukemia
KM12 colon = test system: KM12 colon
LOX IMVI melanoma = test system: LOX IMVI melanoma
M14 melanoma = test system: M14 melanoma
MALME-3M melanoma = test system: MALME-3M melanoma
MCF7 breast = test system: MCF7 breast
MDA-MB-231 breast = test system: MDA-MB-231 breast
MDA-MB-435 = test system: MDA-MB-435
MDA-N = test system: MDA-N
MOLT-4 leukemia = test system: MOLT-4 leukemia
NCI-H226 lung = test system: NCI-H226 lung
NCI-H23 lung = test system: NCI-H23 lung
NCI-H460 lung = test system: NCI-H460 lung
NCI-H522 lung = test system: NCI-H522 lung
NCI/ADR-RES ovarian = test system: NCI/ADR-RES ovarian
OVCAR-3 ovarian = test system: OVCAR-3 ovarian
OVCAR-4 ovarian = test system: OVCAR-4 ovarian
OVCAR-5 ovarian = test system: OVCAR-5 ovarian
OVCAR-8 ovarian = test system: OVCAR-8 ovarian
PC-3 prostate = test system: PC-3 prostate
RPMI-8226 leukemia = test system: RPMI-8226 leukemia
RXF 393 renal = test system: RXF 393 renal
SF-268 CNS = test system: SF-268 CNS
SF-295 CNS = test system: SF-295 CNS
SF-539 CNS = test system: SF-539 CNS
SK-MEL-2 melanoma = test system: SK-MEL-2 melanoma
SK-MEL-28 melanoma = test system: SK-MEL-28 melanoma
SK-MEL-5 melanoma = test system: SK-MEL-5 melanoma
SK-OV-3 ovarian = test system: SK-OV-3 ovarian
SN12C renal = test system: SN12C renal
SNB-19 CNS = test system: SNB-19 CNS
SNB-75 CNS = test system: SNB-75 CNS
SR leukemia = test system: SR leukemia
SW-620 colon = test system: SW-620 colon
T-47D breast = test system: T-47D breast
TK-10 renal = test system: TK-10 renal
U251 CNS = test system: U251 CNS
UACC-257 melanoma = test system: UACC-257 melanoma
UACC-62 melanoma = test system: UACC-62 melanoma
UO-31 renal = test system: UO-31 renal

With `CC1=NN(c2ccc(C)cc2)C2(C1)SCC(=O)N2c1nc2ccccc2s1` (configuration not stated) the TGI (786-0 renal) was 71 µM, the TGI (A498 renal) was 70.6 µM and the TGI (A549 NSCLC) was > 100 µM. For the same compound, the TGI (ACHN renal) was > 100 µM, the TGI (BT-549 breast) was > 100 µM and the TGI (CAKI-1 renal) was > 100 µM. The TGI (CCRF-CEM leukemia) was 28.4 µM, the TGI (COLO 205 colon) was 57.9 µM and the TGI (DU-145 prostate) was > 100 µM. It also gave a TGI (EKVX NSCLC) of 99.1 µM, a TGI (HCC-2998 colon) of 48.3 µM and a TGI (HCT-116 colon) of 51.1 µM. The TGI (HCT-15 colon) was > 100 µM, the TGI (HL-60(TB) leukemia) was 36.5 µM and the TGI (HOP-62 NSCLC) was > 100 µM. For the same compound, the TGI (HOP-92 NSCLC) was > 100 µM, the TGI (HS 578T breast) was > 100 µM and the TGI (HT29 colon) was > 100 µM. For the same compound, the TGI (IGROV1 ovarian) was > 100 µM, the TGI (K-562 leukemia) was > 100 µM and the TGI (KM12 colon) was > 100 µM. The TGI (LOX IMVI melanoma) was 76.2 µM, the TGI (M14 melanoma) was > 100 µM and the TGI (MALME-3M melanoma) was > 100 µM. For the same compound, the TGI (MCF7 breast) was 48.8 µM, the TGI (MDA-MB-231 breast) was 41.4 µM and the TGI (MDA-MB-435) was > 100 µM. For the same compound, the TGI (MDA-N) was 70.2 µM, the TGI (MOLT-4 leukemia) was 46.1 µM and the TGI (NCI-H226 lung) was 47 µM. It also gave a TGI (NCI-H23 lung) of 77.5 µM, a TGI (NCI-H460 lung) of 56.5 µM and a TGI (NCI-H522 lung) of 52.6 µM. For the same compound, the TGI (NCI/ADR-RES ovarian) was 76.2 µM, the TGI (OVCAR-3 ovarian) was 92.6 µM and the TGI (OVCAR-4 ovarian) was > 100 µM. For the same compound, the TGI (OVCAR-5 ovarian) was > 100 µM, the TGI (OVCAR-8 ovarian) was > 100 µM and the TGI (PC-3 prostate) was 70.1 µM. The TGI (RPMI-8226 leukemia) was 50.1 µM, the TGI (RXF 393 renal) was 54.8 µM and the TGI (SF-268 CNS) was > 100 µM. For the same compound, the TGI (SF-295 CNS) was > 100 µM, the TGI (SF-539 CNS) was 46.8 µM and the TGI (SK-MEL-2 melanoma) was 61.1 µM. For the same compound, the TGI (SK-MEL-28 melanoma) was > 100 µM, the TGI (SK-MEL-5 melanoma) was 24.2 µM and the TGI (SK-OV-3 ovarian) was > 100 µM. The TGI (SN12C renal) was 52.2 µM, the TGI (SNB-19 CNS) was > 100 µM and the TGI (SNB-75 CNS) was 64.7 µM. For the same compound, the TGI (SR leukemia) was 28.1 µM, the TGI (SW-620 colon) was > 100 µM and the TGI (T-47D breast) was 67.1 µM. For the same compound, the TGI (TK-10 renal) was 74.4 µM, the TGI (U251 CNS) was 65.5 µM and the TGI (UACC-257 melanoma) was 55.1 µM. For the same compound, the TGI (UACC-62 melanoma) was 45.6 µM and the TGI (UO-31 renal) was > 100 µM.
With `COc1cc2oc3ccccc3c(=O)c2cc1CSc1ccccc1N` the TGI (786-0 renal) was > 100 µM, the TGI (A498 renal) was > 73.5 µM and the TGI (A549 NSCLC) was > 100 µM. For the same compound, the TGI (ACHN renal) was > 100 µM, the TGI (BT-549 breast) was > 100 µM and the TGI (CAKI-1 renal) was > 100 µM. For the same compound, the TGI (CCRF-CEM leukemia) was 45.6 µM, the TGI (COLO 205 colon) was > 95.6 µM and the TGI (DU-145 prostate) was > 84.9 µM. For the same compound, the TGI (EKVX NSCLC) was > 100 µM, the TGI (HCC-2998 colon) was 29.3 µM and the TGI (HCT-116 colon) was > 100 µM. The TGI (HCT-15 colon) was > 100 µM, the TGI (HL-60(TB) leukemia) was 64.8 µM and the TGI (HOP-62 NSCLC) was > 93.3 µM. The TGI (HOP-92 NSCLC) was > 100 µM, the TGI (HS 578T breast) was > 100 µM and the TGI (HT29 colon) was > 100 µM. For the same compound, the TGI (IGROV1 ovarian) was > 100 µM, the TGI (K-562 leukemia) was > 100 µM and the TGI (KM12 colon) was 84 µM. The TGI (LOX IMVI melanoma) was > 100 µM, the TGI (M14 melanoma) was > 100 µM and the TGI (MALME-3M melanoma) was > 79.5 µM. The TGI (MCF7 breast) was > 100 µM, the TGI (MDA-MB-231 breast) was > 100 µM and the TGI (MDA-MB-435) was 8.93 µM. For the same compound, the TGI (MDA-N) was > 100 µM, the TGI (MOLT-4 leukemia) was 26.1 µM and the TGI (NCI-H226 lung) was > 100 µM. For the same compound, the TGI (NCI-H23 lung) was > 100 µM, the TGI (NCI-H460 lung) was > 100 µM and the TGI (NCI-H522 lung) was 41.1 µM. For the same compound, the TGI (NCI/ADR-RES ovarian) was > 70.9 µM, the TGI (OVCAR-3 ovarian) was > 68.1 µM and the TGI (OVCAR-4 ovarian) was > 100 µM. For the same compound, the TGI (OVCAR-5 ovarian) was > 100 µM, the TGI (OVCAR-8 ovarian) was > 100 µM and the TGI (PC-3 prostate) was > 100 µM. For the same compound, the TGI (RPMI-8226 leukemia) was > 87.6 µM, the TGI (RXF 393 renal) was > 45.5 µM and the TGI (SF-268 CNS) was > 100 µM. The TGI (SF-295 CNS) was > 100 µM, the TGI (SF-539 CNS) was > 100 µM and the TGI (SK-MEL-2 melanoma) was > 77.6 µM. For the same compound, the TGI (SK-MEL-28 melanoma) was 98.2 µM, the TGI (SK-MEL-5 melanoma) was > 74 µM and the TGI (SK-OV-3 ovarian) was > 100 µM. For the same compound, the TGI (SN12C renal) was > 100 µM, the TGI (SNB-19 CNS) was > 100 µM and the TGI (SNB-75 CNS) was > 100 µM. For the same compound, the TGI (SR leukemia) was 28.3 µM, the TGI (SW-620 colon) was > 100 µM and the TGI (T-47D breast) was 27.8 µM. The TGI (TK-10 renal) was > 100 µM, the TGI (U251 CNS) was > 100 µM and the TGI (UACC-257 melanoma) was > 100 µM. The TGI (UACC-62 melanoma) was > 66.9 µM.
